Columns and labels:
[1] = target: T1, AT1 receptor (Homo sapiens, UniProt P30556); format: cell-based; design: expressed in transfected cells; host or cells: HEK293T
T1 sequence (P30556 1-359): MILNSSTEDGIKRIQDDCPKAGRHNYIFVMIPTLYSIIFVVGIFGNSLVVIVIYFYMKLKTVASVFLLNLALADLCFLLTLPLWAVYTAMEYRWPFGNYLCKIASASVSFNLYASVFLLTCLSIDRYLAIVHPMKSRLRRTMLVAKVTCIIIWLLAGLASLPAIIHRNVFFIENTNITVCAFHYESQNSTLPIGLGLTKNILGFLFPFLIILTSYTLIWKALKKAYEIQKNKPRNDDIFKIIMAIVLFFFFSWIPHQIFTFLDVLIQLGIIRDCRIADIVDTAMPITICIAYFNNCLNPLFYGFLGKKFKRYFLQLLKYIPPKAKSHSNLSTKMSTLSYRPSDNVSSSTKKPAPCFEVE

[2] = target: T1, AT1 receptor; experiment: cell-based; format: cell-based; design: expressed in transfected cells; host or cells: HEK293T
[3] = target: T1, AT1 receptor
[4] = system: T2, AT2 receptor; format: binding, rat
T2 construct: expressed in transfected cells

Compound	activation of GαoA pathway by the substance alone [1]	inhibition of AngII-induced GαoA activation, 1 µM candesartan [1]	activation of Gαi3 by the substance alone [2]	inhibition of AngII-induced Gαi3 activation, 1 µM candesartan [2]	increase in BRET signal (β-arrestin 2 recruitment) by the substance alone [3]	inhibition of AngII-induced β-arrestin 2 BRET signal, 1 µM candesartan [3]	non-specific labelling of cells compared to total labelling with Cy5-AngII alone, AT2 [4] [%]
CCOc1nc2cccc(C(=O)O)c2n1Cc1ccc(-c2ccccc2-c2nnn[nH]2)cc1 [candesartan]	Neither the toxin nor the candesartan alone can induce activation of this pathway	blocked	Neither candesartan, an AT1 receptor antagonist, nor the toxin alone could induce the activation of Gαi3	fully inhibited	Neither the candesartan nor the toxin alone could induce an increase in the BRET signal	completely inhibits	
CC[C@H](C)[C@H](NC(=O)[C@H](Cc1ccc(O)cc1)NC(=O)[C@@H](NC(=O)[C@H](CCCNC(=N)N)NC(=O)[C@@H](N)CC(=O)O)C(C)C)C(=O)N[C@@H](Cc1c[nH]cn1)C(=O)N1CCC[C@H]1C(=O)N[C@@H](Cc1ccccc1)C(=O)O [AngII, angiotensin II]							7

— article PMC9916866 (International Journal of Molecular Sciences, 2023)
